Our source for the IC50 and MIC values is US8884061B2, “Compositions and methods of use of electron transport system inhibitors” (priority 2006, dated 2014).

Broadly, the IC50 is the point on the concentration scale where inhibition reaches its midpoint.

One experiment addresses MenA (Mycobacterium tuberculosis, UniProt P9WIP3). Description: In vitro assay against MenA (membrane fractions). The note with it: membrane fractions from M. tuberculosis; 5 μM farnesyl diphosphate, 50 μM dihydroxynaphthoic acid, pH 8.5; read-out: IC50 (μmol) MenA. The format is biochemical.
Experiment [1] has as its system M. tuberculosis H37Rv. Description: MIC, colorimetric microtiter plate method with Alamar blue. The format is cell-based. The following applies: Mycobacterium tuberculosis, read-out: MIC (μg/mL) M. tuberculosis. The protocol:
Activity Against M. Tuberculosis
The minimum inhibitory concentration (MIC) of compounds were determined against H37Rv by a colorimetric microtiter plate based method with Alamar blue.

For the next experiment, the system named is M. kansasii NIHJ1619. Briefly: MIC, agar (7H11) dilution method. Format: cell-based. The following applies: Mycobacterium kansasii, read-out: Minimum inhibitory concentrations (MIC).
A further experiment deals with M. avium Flamingo. Description: MIC, agar (7H11) dilution method. Format: cell-based. The following applies: Mycobacterium avium, read-out: Minimum inhibitory concentrations (MIC).
For experiment [2], the system named is M. intracellularae ATCC 15984. Description: MIC, agar (7H11) dilution method. Format: cell-based. The note with it: read-out: Minimum inhibitory concentrations (MIC).
The subject of experiment [3] is M. tuberculosis H37Rv. Briefly: MIC, agar (7H11) dilution method. The note with it: Mycobacterium tuberculosis, H37RV, M. tuberculosis H37Rv, read-out: Minimum inhibitory concentrations (MIC). Format: cell-based.
Another experiment deals with M. bovis BCG Tokyo. Briefly: microbe, parasite or virus in culture. Format: cell-based. The following applies: Mycobacterium tuberculosis variant bovis BCG, BCG, read-out: Minimum inhibitory concentrations (MIC).
The test system of the next experiment is M. smegmatis Takeo. Description: MIC, agar (7H11) dilution method. The format is cell-based. The note with it: Mycolicibacterium smegmatis, read-out: Minimum inhibitory concentrations (MIC).
The subject of another experiment is M. tuberculosis Kurono. Briefly: MIC, agar (7H11) dilution method. Format: cell-based. The following applies: Mycobacterium tuberculosis; M. tuberculosis Kurono; agar (7H11) dilution; read-out: Minimum inhibitory concentrations (MIC).
For another experiment, the system named is M. fortuitum NIHJ1615. Description: MIC, agar (7H11) dilution method. The format is cell-based. The following applies: Mycolicibacterium fortuitum, read-out: Minimum inhibitory concentrations (MIC).
Another experiment has as its system M. aurum. Description: MIC, agar (7H11) dilution method. The following applies: Mycolicibacterium aurum, read-out: Minimum inhibitory concentrations (MIC). Format: cell-based.
The mark [4] stands for this setting: table line r8 (2nd of 5 so labelled).
[5] abbreviates: table line r9 (3rd of 5 so labelled).
Where [6] appears, read: table line r10 (4th of 5 so labelled).
[7] abbreviates: table line r11 (5th of 5 so labelled).

Molecules are shown by their SMILES. In brackets after ≈: the same amount, converted by molar mass.

Sequence of MenA (P9WIP3 whole entry): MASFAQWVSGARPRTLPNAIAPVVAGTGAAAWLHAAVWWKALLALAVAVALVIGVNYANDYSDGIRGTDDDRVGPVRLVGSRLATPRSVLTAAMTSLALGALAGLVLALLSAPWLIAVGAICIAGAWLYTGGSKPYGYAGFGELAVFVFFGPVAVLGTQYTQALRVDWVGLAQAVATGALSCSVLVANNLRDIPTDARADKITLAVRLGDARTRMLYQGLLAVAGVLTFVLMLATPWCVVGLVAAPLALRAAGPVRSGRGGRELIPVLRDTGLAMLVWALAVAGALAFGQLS

`C=CCN(C)CCCCCCCOc1ccc(C(=O)c2ccc(Br)cc2)cc1` [Cpd 1, (4-(7-(allyl(methyl)amino)heptyloxy)phenyl)(4-bromophenyl)methanone]: the IC50 on MenA was found to be 12 µM. Further, in the experiment on M. tuberculosis H37Rv [1], the MIC stood at 5 µg/mL (≈ 11.3 µM).

On to `C=CCN(C)CCCCCCCCOc1ccc(C(=O)c2ccc(Br)cc2)cc1` [Cpd 2], for which the IC50 on MenA stood at 10 µM. Moreover, the MIC in the experiment with M. tuberculosis H37Rv [1] was determined as 4 µg/mL (≈ 8.73 µM).

For `C=CCN(C)CCCCCCCOc1ccc(C(O)c2ccc(Br)cc2)cc1` (centres unmarked) [Cpd 3], the IC50 at MenA worked out at 15 µM. Besides, the MIC in the experiment with M. tuberculosis H37Rv [1] was 5 µg/mL (≈ 11.2 µM).

For the molecule `C=CCN(C)CCCCCCCCOc1ccc(C(O)c2ccc(Br)cc2)cc1` (centres unmarked) [Cpd 4], the IC50 at MenA came out at 12 µM. In the experiment with M. tuberculosis H37Rv [1], the MIC is 7 µg/mL (≈ 15.2 µM).

`C=CCN(C)CCCCCCCCOc1ccc(C(=O)c2ccc(Cl)cc2)cc1` [Cpd 5, (4-(8-(Allyl(methyl)amino)octyloxy)phenyl)(4-chlorophenyl)methanone]: on MenA, the IC50 came to 5 µM. The MIC in the experiment with M. tuberculosis H37Rv [1] was 0.3 µg/mL (≈ 0.725 µM).

`C=CCN(C)CCCCCCCCOc1ccc(C(O)c2ccc(Cl)cc2)cc1` (centres unmarked) [Cpd 6, (4-(8-(allyl(methyl)amino)octyloxy)phenyl)(4-chlorophenyl)methanol]: the IC50 at MenA came to 10 µM. Besides, in the experiment with M. tuberculosis H37Rv [1], the MIC was 3 µg/mL (≈ 7.21 µM).

As for `C=CCN(C)CCCCCCCCOc1ccc(C(=O)c2ccc(Cl)cc2Cl)cc1` [Cpd 7, (4-(8-(Allyl(methyl)amino)octyloxy)phenyl)(2,4-dichlorophenyl)methanone], at MenA, the IC50 is 10 µM. For the same molecule, the MIC with M. tuberculosis H37Rv [1] was determined as 4 µg/mL (≈ 8.92 µM).

Regarding `C=CCN(C)CCCCCCCCOc1ccc(C(O)c2ccc(Cl)cc2Cl)cc1` (centres unmarked) [Cpd 8], the IC50 on MenA worked out at 12 µM. In addition, the MIC in the experiment on M. tuberculosis H37Rv [1] amounted to 5 µg/mL (≈ 11.1 µM).

As to `C=CCN(C)CCCCCCCCOc1ccc(C(=O)c2ccc(Cl)cc2)c(Cl)c1` [Cpd 9], the IC50 on MenA was determined as 4 µM. In addition, the MIC in the experiment on M. tuberculosis H37Rv [1] turned out to be 0.6 µg/mL (≈ 1.34 µM).

Regarding `C=CCN(C)CCCCCCCCOc1ccc(C(O)c2ccc(Cl)cc2)c(Cl)c1` (centres unmarked) [Cpd 10, (4-(8-(allyl(methyl)amino)octyloxy)-2-chlorophenyl)(4-chlorophenyl)methanol], the half-inhibitory concentration (IC50) on MenA is less than 2.5 µM. For the same molecule, in the experiment with M. tuberculosis H37Rv [1], the MIC was found to be 0.6 µg/mL (≈ 1.33 µM).

With `C#CCN(C)CCCCCCCCOc1ccc(C(=O)c2ccc(Cl)cc2)c(Cl)c1` [Cpd 11, (2-Chloro-4-(8-(methyl(prop-2-ynyl)amino)octyloxy)phenyl)(4-chlorophenyl)methanone], the IC50 at MenA came to 15 µM. The MIC in the experiment with M. tuberculosis H37Rv [1] came to 12 µg/mL (≈ 26.9 µM).

Take `CN(CCCCCCCCOc1ccc(C(=O)c2ccc(Cl)cc2)c(Cl)c1)Cc1ccccc1` [Cpd 12]: on MenA, the IC50 worked out at 13 µM. Besides, the MIC with M. tuberculosis H37Rv [1] stood at 12 µg/mL (≈ 24.1 µM).

On to `C=CCN(C)CCCCCCCCOc1ccc(C(=O)c2ccc(Cl)cc2)c(O)c1` [Cpd 13, (4-(8-(allyl(methyl)amino)octyloxy)-2-hydroxyphenyl)(4-chlorophenyl)methanone], for which the concentration for half-maximal inhibition (IC50) at MenA is less than 2.5 µM. The MIC with M. tuberculosis H37Rv [1] is 0.2 µg/mL (≈ 0.465 µM).

On to `NNC(=O)c1ccncc1` [INH, isoniazid, reference compound], for which the MIC in the experiment with M. kansasii NIHJ1619 is 12.5 µg/mL (≈ 91.1 µM); with M. avium Flamingo, more than 25 µg/mL; in experiment [2] it was 12.5 µg/mL (≈ 91.1 µM); in the experiment on M. tuberculosis H37Rv [3] (setting [4]), 0.1 µg/mL (≈ 0.729 µM); in the experiment with M. tuberculosis H37Rv [3] (setting [5]), more than 25 µg/mL; in the experiment on M. tuberculosis H37Rv [3] (setting [6]), 0.05 µg/mL (≈ 0.365 µM). The MIC in the experiment with M. tuberculosis H37Rv [3] (setting [7]) is 0.1 µg/mL (≈ 0.729 µM); in the experiment on M. bovis BCG Tokyo it was 0.1 µg/mL (≈ 0.729 µM); with M. smegmatis Takeo it was 12.5 µg/mL (≈ 91.1 µM); with M. tuberculosis Kurono, 0.05 µg/mL (≈ 0.365 µM); with M. fortuitum NIHJ1615, 6.25 µg/mL (≈ 45.6 µM); in the experiment with M. aurum, 6.25 µg/mL (≈ 45.6 µM).

As for `CO[C@H]1/C=C/O[C@@]2(C)Oc3c(C)c(O)c4c(O)c(c(/C=N/N5CCN(C)CC5)c(O)c4c3C2=O)NC(=O)/C(C)=C\C=C\[C@H](C)[C@H](O)[C@@H](C)[C@@H](O)[C@@H](C)[C@H](OC(C)=O)[C@@H]1C` [RFP, Rifampicin, reference compound], the MIC was 3.13 µg/mL (≈ 3.8 µM) in the experiment with M. kansasii NIHJ1619; 3.13 µg/mL (≈ 3.8 µM) in the experiment on M. avium Flamingo; 3.13 µg/mL (≈ 3.8 µM) in [2]; 0.1 µg/mL (≈ 0.122 µM) with M. tuberculosis H37Rv [3] (setting [4]); 0.2 µg/mL (≈ 0.243 µM) in the experiment on M. tuberculosis H37Rv [3] (setting [5]); more than 25 µg/mL in the experiment with M. tuberculosis H37Rv [3] (setting [6]). In addition, the MIC was 0.2 µg/mL (≈ 0.243 µM) with M. tuberculosis H37Rv [3] (setting [7]); 0.1 µg/mL (≈ 0.122 µM) in the experiment on M. bovis BCG Tokyo; more than 25 µg/mL with M. smegmatis Takeo; 0.1 µg/mL (≈ 0.122 µM) in the experiment with M. tuberculosis Kurono; more than 25 µg/mL in the experiment on M. fortuitum NIHJ1615; 0.78 µg/mL (≈ 0.948 µM) in the experiment with M. aurum.
